Results taken from the NIST ThermoML archive (doi:10.1016/j.fluid.2017.12.001).

Assay: xn = mol fraction of the nth substance listed
Details: 100.9 kPa, Liquid; for speed of sound: Single path-length method; for mass density: Vibrating tube method; for viscosity: Concentric cylinders viscometry

CCCC(=O)[O-].CC[NH2+]CC [diethylammonium butanoate] + O
Details	mass density [kg/m3]	speed of sound [m/s]	viscosity [mPa·s]
308.15 K, x1 = 0.0123	996.9	–	–
308.15 K, x1 = 0.0453	1000.03	–	–
308.15 K, x1 = 0.1005	994.12	–	–
308.15 K, x1 = 0.1439	981.01	–	–
308.15 K, x1 = 0.2067	973.03	1659.9	–
308.15 K, x1 = 0.3096	957.65	1581.6	–
308.15 K, x1 = 0.4951	938.09	1494	–
308.15 K, x1 = 0.6812	927.6	1435.5	–
308.15 K, x1 = 0.7974	912	1424.2	–
308.15 K, x1 = 0.974	907.1	1382.6	–
310.65 K, x1 = 0.0122	–	–	1.06
310.65 K, x1 = 0.0451	–	–	2.43
310.65 K, x1 = 0.0999	–	–	5.73
310.65 K, x1 = 0.143	–	–	8.92
310.65 K, x1 = 0.2051	–	–	14.41
310.65 K, x1 = 0.3064	–	–	24.13
310.65 K, x1 = 0.4879	–	–	34.17
310.65 K, x1 = 0.6684	–	–	35.33
310.65 K, x1 = 0.974	–	–	30.78
313.15 K, x1 = 0.0122	–	–	1.01
313.15 K, x1 = 0.0123	995	1615.3	–
313.15 K, x1 = 0.0451	–	–	2.26
313.15 K, x1 = 0.0453	997.13	1743.8	–
313.15 K, x1 = 0.0999	–	–	5.25
313.15 K, x1 = 0.1005	991.05	1736.7	–
313.15 K, x1 = 0.143	–	–	8.13
313.15 K, x1 = 0.1439	977.64	1702.2	–
313.15 K, x1 = 0.2051	–	–	13.03
313.15 K, x1 = 0.2067	969.96	1644.3	–
313.15 K, x1 = 0.3064	–	–	21.59
313.15 K, x1 = 0.3096	954.6	1565.2	–
313.15 K, x1 = 0.4879	–	–	30.39
313.15 K, x1 = 0.4951	934.18	1478.3	–
313.15 K, x1 = 0.6684	–	–	31.48
313.15 K, x1 = 0.6812	925.21	1418.8	–
313.15 K, x1 = 0.7974	908.2	1408.5	–
313.15 K, x1 = 0.974	903.2	1365.2	27.55
315.65 K, x1 = 0.0122	–	–	0.96
315.65 K, x1 = 0.0451	–	–	2.1
315.65 K, x1 = 0.0999	–	–	4.82
315.65 K, x1 = 0.143	–	–	7.42
315.65 K, x1 = 0.2051	–	–	11.82
315.65 K, x1 = 0.3064	–	–	19.39
315.65 K, x1 = 0.4879	–	–	27.14
315.65 K, x1 = 0.6684	–	–	28.13
315.65 K, x1 = 0.974	–	–	24.73
318.15 K, x1 = 0.0122	–	–	0.92
318.15 K, x1 = 0.0123	992.7	1617.5	–
318.15 K, x1 = 0.0451	–	–	1.96
318.15 K, x1 = 0.0453	994.15	1734.2	–
318.15 K, x1 = 0.0999	–	–	4.45
318.15 K, x1 = 0.1005	987.76	1722.8	–
318.15 K, x1 = 0.143	–	–	6.82
318.15 K, x1 = 0.1439	974.31	1687.3	–
318.15 K, x1 = 0.2051	–	–	10.76
318.15 K, x1 = 0.2067	967.21	1628.7	–
318.15 K, x1 = 0.3064	–	–	17.45
318.15 K, x1 = 0.3096	952.7	1548.6	–
318.15 K, x1 = 0.4879	–	–	24.28
318.15 K, x1 = 0.4951	930.28	1462.4	–
318.15 K, x1 = 0.6684	–	–	25.23
318.15 K, x1 = 0.6812	922.19	1401.9	–
318.15 K, x1 = 0.7974	904.3	1393.8	–
318.15 K, x1 = 0.974	899.2	1348.2	22.26
320.65 K, x1 = 0.0122	–	–	0.87
320.65 K, x1 = 0.0451	–	–	1.84
320.65 K, x1 = 0.0999	–	–	4.11
320.65 K, x1 = 0.143	–	–	6.24
320.65 K, x1 = 0.2051	–	–	9.82
320.65 K, x1 = 0.3064	–	–	15.77
320.65 K, x1 = 0.4879	–	–	21.77
320.65 K, x1 = 0.6684	–	–	22.68
320.65 K, x1 = 0.974	–	–	20.08
